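Step 1: Grow cells in 96-well plates. Step 2: Expose to compound for 48 hours at 5 concentrations. Step 3: Interpolate endpoints linearly; if unreached, use highest concentration. The concentration for full growth arrest is given as TGI.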
How the values were obtained:
Experiment in all cases: DTP human tumour cell line panel, 48 h
[1] = test system: OVCAR-8 ovarian
[2] = test system: SK-MEL-5 melanoma
[3] = test system: EKVX NSCLC
[4] = test system: OVCAR-5 ovarian
[5] = test system: RXF 393 renal
[6] = test system: SW-620 colon
[7] = test system: DU-145 prostate
[8] = test system: PC-3 prostate
[9] = test system: SF-295 CNS
[10] = test system: RPMI-8226 leukemia
[11] = test system: ACHN renal
[12] = test system: NCI-H226 lung
[13] = test system: CAKI-1 renal
[14] = test system: SK-MEL-2 melanoma

Compound	TGI [1] [µM]	TGI [2] [µM]	TGI [3] [µM]	TGI [4] [µM]	TGI [5] [µM]	TGI [6] [µM]	TGI [7] [µM]	TGI [8] [µM]	TGI [9] [µM]	TGI [10] [µM]	TGI [11] [µM]	TGI [12] [µM]	TGI [13] [µM]	TGI [14] [µM]
C(=C\c1ccccc1)/Cn1nc(-c2ccccc2)nc1-c1cnccn1	> 100	> 100	> 100	> 100	> 100	> 100	> 100	> 100	> 100	> 100				
c1ccc2c(c1)Sc1ccccc1N2CCCN1c2ccccc2Sc2ccccc21	> 100	> 100	> 100	> 100	> 100	> 100	> 100	> 100	> 100		> 100	> 100	> 100	
COC1/C=C/C(C)C(C(C)C(OC)C(C)CCC(=O)C(C)C(CC(=O)O)OC)OC(=O)/C=C/C=C(\C)CC(OC)C(OC)C2=CC(=O)O[C@@H](C(C)C(OC)CC(OC)/C=C/C(C)C(O)C1)[C@H]2O (stereo not given in full)	0.132	0.242	0.175	> 1.07		> 1.07	> 1.07	> 1.07	0.261	> 1.07	> 1.07	0.127	> 1.07	0.625
O=C1CCCSCCCC(=O)CCCSCCC1	> 100	> 100	> 100	> 100		> 100	> 100	> 100	> 100					
c1ccc2nc3c(nc2c1)sc1nc2ccccc2n13	> 100	> 100	> 100	> 100	> 100		> 100	> 100	> 100	> 100	> 100	> 100	> 100	
CC1=CC(=C(c2ccc(N)c(C)c2)c2ccc(N)c(C)c2)C=CC1=N	18.3	5.75	45.8	> 84.4	51.2	17.7			11.7	29.6	69.2	33.6	62.4	7.48
CC(C)(C)c1ccc(Oc2ccc(C#N)c(C#N)c2)c(C(C)(C)C)c1	> 100	> 100	> 100	> 100	> 95.7	> 100			> 100	43.1	> 100	> 100	> 100	97.8
COC(=O)C1=C(O)C(C(=O)OC)[C@]2(O)[C@H](C(=O)OC)[C@H]1C[C@@H](c1ccc(O)cc1)[C@H]2C(=O)OC (stereo not given in full)	> 100	> 100	> 100	97.1	45.1	> 100	71.6	76.4	58.8	> 100	> 100	> 100	> 100	
COc1cccc2c1C(=O)c1c(O)c3c(c(O)c1C2=O)CC(O)(C(C)=O)CC3OC1CC([N+](C)(C)C)C(O)C(C)O1 (stereo not given)	> 100	> 100	> 100	> 100	> 100	> 100			> 100	> 100	> 100	> 100	> 100	> 100
Cc1ccc(-n2nnc3c(NNc4ccccc4)n[nH]c(=O)c32)cc1	> 100	> 100	> 100	> 100			> 100	> 100	> 100	> 100	> 100	> 100	> 100	> 100
O=c1ccc(-c2ccc(-n3ccnc3)cc2)nn1CCO	> 100	> 100	> 100	> 100	> 100	> 100	> 100	> 100	> 100	> 100	> 100		> 100	
CN1NC2=NCCN=C3NN(C)C(=NCCN=C1S2)S3	> 100	> 100	> 100	> 100	> 100	> 100			> 100	> 100	> 100	> 100		
CC(=O)N1c2ccccc2C2=NN=C(N(C)C)SC21 (stereo not given)	12.1		12.8	18.1		20	7.45	18	8.16	81.3	10.4	19.5		6.36
COC(=O)CC(SCCO)SCCO	> 100	> 100	> 100	> 100	> 100	> 100	> 100	> 100	> 100	> 100	> 100	> 100	> 100	
Nc1nc([O-])c([I+]c2ccccc2)c(=O)[nH]1	> 100	> 100	> 100	> 100	> 100	> 100	> 100	> 100	> 100	> 100	> 100	> 100	> 100	
O=C(/C=C/c1ccsc1)c1cccs1	> 10	36.3	99.4	> 100	42.9	32.3	> 100	> 100	> 100		> 100	> 100	> 100	
COC1=C(OC)C(=O)c2cc(SC)c(=O)c(SC)cc2C1=O	50.9	25.9	48.9		16.8	> 100			29.2	40.2	28.9	28.4	> 100	15.5
Cc1nc(C)c(N2CCN(C(=O)NC(CCC(=O)O)C(=O)O)CC2)c(=O)[nH]1 (stereo not given)	> 100		> 100	> 100	> 100	> 100	> 100	> 100	> 100	> 100	> 100	> 100	> 100	

Source: PubChem BioAssay (NCI)
